Target: human APJ receptor (Homo sapiens (Human), UniProt P35414)
Assay: biochemical
Assay type: biochemical
Details: [35S]GTPγS binding, membranes from CHO cells stably expressing human APJ receptor; read-out: Activity hAPJ SPA EC50 IP
Procedure: The human APJ receptor was cloned by polymerase chain reaction and the gene encoding the receptor was subcloned in pFLAG-CMV™-3 expression vector (Sigma, Saint Louis, Mo. USA) in-house at Amgen. A GTPγS binding assay was performed on membranes prepared from CHO cells stably expressing human APJ receptor. The optimum experimental conditions for the concentrations of GDP, MgCl2, and NaCl in the assay buffer were initially determined. The assay was performed in 9 μL assay buffer [20 mM HEPES, pH 7.5, 5 mM MgCl2, 100 mM NaCl and 0.1% (w/v) BSA], 1 μL of diluted test compound (starting with 0.75 mM, 2-fold serial dilution with DMSO, total 22 points), 10 μL of 18 µM GDP (final concentration of 3 μM GDP), 20 μL of […] membrane protein expressing human APJ receptor captured with WGA PS beads (final concentration of 5 μg per well), and 20 μL of 0.3 nM [^35S]GTPγS (final concentration is 0.1 nM [^35S]GTPγS)(Perkin Elmer Life and Analytical Sciences, Waltham USA).

human APJ receptor, sequence (P35414 whole entry): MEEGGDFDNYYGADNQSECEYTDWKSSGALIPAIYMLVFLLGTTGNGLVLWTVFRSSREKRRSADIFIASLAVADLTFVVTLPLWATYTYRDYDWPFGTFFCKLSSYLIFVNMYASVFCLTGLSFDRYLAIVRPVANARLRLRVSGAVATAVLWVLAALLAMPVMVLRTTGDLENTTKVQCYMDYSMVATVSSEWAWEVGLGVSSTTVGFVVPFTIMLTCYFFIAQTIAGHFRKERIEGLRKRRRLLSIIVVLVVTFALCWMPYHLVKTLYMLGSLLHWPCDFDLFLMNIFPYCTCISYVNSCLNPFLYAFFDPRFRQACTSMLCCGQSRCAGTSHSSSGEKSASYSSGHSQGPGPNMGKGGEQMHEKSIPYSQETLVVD

In the case of `COCc1nnc(NS(=O)(=O)[C@@H](C)[C@@H](OC(C)C)c2ncc(C)cn2)n1-c1c(F)cccc1F` [Example 30.0, (1S,2S)-N-(4-(2,6-difluorophenyl)-5-(methoxymethyl)-4H-1,2,4-triazol-3-yl)-1-(1-methylethoxy)-1-(5-methyl-2-pyrimidinyl)-2-propanesulfonamide], the EC50 is reported as 0.24 µM.
Work on `COc1ncnc(OC)c1-n1c(CC(C)C)nnc1NS(=O)(=O)[C@@H](C)[C@H](OC)c1ncc(Cl)cn1` [Example 31.0, (1R,2S)-1-(5-chloro-2-pyrimidinyl)-N-(4-(4,6-dimethoxy-5-pyrimidinyl)-5-(2-methylpropyl)-4H-1,2,4-triazol-3-yl)-1-methoxy-2-propanesulfonamide] yielded an EC50 of 0.0076 µM.
With `COCCc1nnc(NS(=O)(=O)[C@@H](C)[C@H](C)c2ncc(Cl)cn2)n1-c1c(OC)cccc1OC` [Example 32.0, (2S,3R)-3-(5-chloro-2-pyrimidinyl)-N-(4-(2,6-dimethoxyphenyl)-5-(2-methoxyethyl)-4H-1,2,4-triazol-3-yl)-2-butanesulfonamide] the EC50 was 0.01 µM.
In the case of `COc1ncnc(OC)c1-n1c(CC2COC2)nnc1NS(=O)(=O)[C@@H](C)[C@H](C)c1ncc(Cl)cn1` [Example 33.0, (2S,3R)-3-(5-chloro-2-pyrimidinyl)-N-(4-(4,6-dimethoxy-5-pyrimidinyl)-5-(3-oxetanylmethyl)-4H-1,2,4-triazol-3-yl)-2-butanesulfonamide], the EC50 is reported as 0.21 µM.
`COc1cccc(OC)c1-n1c(CC2COC2)nnc1NS(=O)(=O)[C@@H](C)[C@H](C)c1ncc(Cl)cn1` [Example 34.0, (2S,3R)-3-(5-chloro-2-pyrimidinyl)-N-(4-(2,6-dimethoxyphenyl)-5-(3-oxetanylmethyl)-4H-1,2,4-triazol-3-yl)-2-butanesulfonamide] gave an EC50 of 0.016 µM.
`COc1cccc(OC)c1-n1c(Cc2ccccn2)nnc1NS(=O)(=O)[C@@H](C)[C@H](C)c1ncc(Cl)cn1` [Example 35.0, (2S,3R)-3-(5-chloro-2-pyrimidinyl)-N-(4-(2,6-dimethoxyphenyl)-5-(2-pyridinylmethyl)-4H-1,2,4-triazol-3-yl)-2-butanesulfonamide] showed an EC50 of 0.032 µM.
Work on `COc1cccc(OC)c1-n1c(CCc2ccco2)nnc1NS(=O)(=O)[C@@H](C)[C@H](C)c1ncc(Cl)cn1` [Example 36.0, (2S,3R)-3-(5-chloro-2-pyrimidinyl)-N-(4-(2,6-dimethoxyphenyl)-5-(2-(2-furanyl)ethyl)-4H-1,2,4-triazol-3-yl)-2-butanesulfonamide] yielded an EC50 of 0.0029 µM.
`COc1cccc(OC)c1-n1c(CS(C)(=O)=O)nnc1NS(=O)(=O)[C@@H](C)[C@H](C)c1ncc(Cl)cn1` [Example 37.0, (2S,3R)-3-(5-chloro-2-pyrimidinyl)-N-(4-(2,6-dimethoxyphenyl)-5-((methylsulfonyl)methyl)-4H-1,2,4-triazol-3-yl)-2-butanesulfonamide] was tested, and the EC50 was 0.34 µM.
Molecule `COc1cccc(OC)c1-n1c(Cc2ccsc2)nnc1NS(=O)(=O)[C@@H](C)[C@H](C)c1ncc(Cl)cn1` [Example 38.0, (2S,3R)-3-(5-chloro-2-pyrimidinyl)-N-(4-(2,6-dimethoxyphenyl)-5-(3-thiophenylmethyl)-4H-1,2,4-triazol-3-yl)-2-butanesulfonamide] has an EC50 of 0.006 µM.
For `COc1cccc(OC)c1-n1c(Cc2cc[nH]n2)nnc1NS(=O)(=O)[C@@H](C)[C@H](C)c1ncc(Cl)cn1` [Example 39.0, (2S,3R)-3-(5-chloro-2-pyrimidinyl)-N-(4-(2,6-dimethoxyphenyl)-5-(1H-pyrazol-3-ylmethyl)-4H-1,2,4-triazol-3-yl)-2-butanesulfonamide], the EC50 was 0.0058 µM.
In the case of `COc1cccc(OC)c1-n1c(CC(C)(C)OC)nnc1NS(=O)(=O)[C@@H](C)[C@H](C)c1ncc(Cl)cn1` [Example 40.0, (2S,3R)-3-(5-chloro-2-pyrimidinyl)-N-(4-(2,6-dimethoxyphenyl)-5-(2-methoxy-2-methylpropyl)-4H-1,2,4-triazol-3-yl)-2-butanesulfonamide], the EC50 is reported as 0.11 µM.
`COc1cccc(OC)c1-n1c(CN2CCCC2=O)nnc1NS(=O)(=O)[C@@H](C)[C@H](C)c1ncc(Cl)cn1` [Example 41.0, (2S,3R)-3-(5-chloro-2-pyrimidinyl)-N-(4-(2,6-dimethoxyphenyl)-5-((2-oxo-1-pyrrolidinyl)methyl)-4H-1,2,4-triazol-3-yl)-2-butanesulfonamide] showed an EC50 of 0.32 µM.
For `COc1cccc(OC)c1-n1c(Cn2ccccc2=O)nnc1NS(=O)(=O)[C@@H](C)[C@H](C)c1ncc(Cl)cn1` [Example 42.0, (2S,3R)-3-(5-chloro-2-pyrimidinyl)-N-(4-(2,6-dimethoxyphenyl)-5-((2-oxo-1(2H)-pyridinyl)methyl)-4H-1,2,4-triazol-3-yl)-2-butanesulfonamide], the EC50 was 0.33 µM.
With `COc1cccc(OC)c1-n1c(Cc2cccs2)nnc1NS(=O)(=O)[C@@H](C)[C@H](C)c1ncc(Cl)cn1` [Example 43.0, (2S,3R)-3-(5-chloro-2-pyrimidinyl)-N-(4-(2,6-dimethoxyphenyl)-5-(2-thiophenylmethyl)-4H-1,2,4-triazol-3-yl)-2-butanesulfonamide] the EC50 was 0.0027 µM.
Work on `COc1cccc(OC)c1-n1c(Cc2nc(C)cs2)nnc1NS(=O)(=O)[C@@H](C)[C@H](C)c1ncc(Cl)cn1` [Example 44.0, (2S,3R)-3-(5-chloro-2-pyrimidinyl)-N-(4-(2,6-dimethoxyphenyl)-5-((4-methyl-1,3-thiazol-2-yl)methyl)-4H-1,2,4-triazol-3-yl)-2-butanesulfonamide] yielded an EC50 of 0.036 µM.
`COc1cccc(OC)c1-n1c(Cc2ccncc2)nnc1NS(=O)(=O)[C@@H](C)[C@H](C)c1ncc(Cl)cn1` [Example 45.0, (2S,3R)-3-(5-chloro-2-pyrimidinyl)-N-(4-(2,6-dimethoxyphenyl)-5-(4-pyridinylmethyl)-4H-1,2,4-triazol-3-yl)-2-butanesulfonamide] showed an EC50 of 0.0017 µM.
With `COc1cccc(OC)c1-n1c(COc2ccccc2)nnc1NS(=O)(=O)[C@@H](C)[C@H](OC)c1ncc(C)cn1` [Example 48.0, (1R,2S)—N-(4-(2,6-Dimethoxyphenyl)-5-(phenoxymethyl)-4H-1,2,4-triazol-3-yl)-1-methoxy-1-(5-methyl-2-pyrimidinyl)-2-propanesulfonamide] the EC50 was 0.44 µM.
Molecule `COc1ccc(Cc2nnc(NS(=O)(=O)[C@@H](C)[C@H](OC)c3ncc(C)cn3)n2-c2c(OC)cccc2OC)cc1` [Example 49.0] has an EC50 of 0.17 µM.
With `COc1cccc(OC)c1-n1c(Cc2ccc(F)cc2)nnc1NS(=O)(=O)[C@@H](C)[C@H](OC)c1ncc(C)cn1` [Example 50.0] the EC50 was 0.94 µM.
With `COc1cccc(OC)c1-n1c(CCN(C)C)nnc1NS(=O)(=O)[C@@H](C)[C@H](OC)c1ncc(C)cn1` [Example 51.0] the EC50 was 0.52 µM.
In the case of `COc1cccc(OC)c1-n1c(CN2CCCCCC2=O)nnc1NS(=O)(=O)[C@@H](C)[C@H](OC)c1ncc(C)cn1` [Example 52.0], the EC50 is reported as 0.65 µM.
Work on `COc1cccc(OC)c1-n1c(CCN2CCN(C)CC2)nnc1NS(=O)(=O)[C@@H](C)[C@H](OC)c1ncc(C)cn1` [Example 53.0] yielded an EC50 of 0.054 µM.
`COc1cccc(OC)c1-n1c(Cc2ccccc2)nnc1NS(=O)(=O)[C@@H](C)[C@H](OC)c1ncc(C)cn1` [Example 54.0] gave an EC50 of 0.3 µM.
`CO[C@H](c1ncc(Cl)cn1)[C@H](C)S(=O)(=O)Nc1nnc(C)n1C1(C)CC1` [Example 55.0, (1R,2S)-1-(5-chloropyrimidin-2-yl)-1-methoxy-N-(5-methyl-4-(1-methylcyclopropyl)-4H-1,2,4-triazol-3-yl)propane-2-sulfonamide] was tested, and the EC50 was 0.54 µM.
